“Also recorded” adds a separate entry of the source.
What was measured:
[1] = test system: antennae of Coleomegilla maculata; test: Electroantennogram (EAG) responses of Coleomegilla maculata antennae; details: for EAG response: C. maculata antennae, both sexes; for dose eliciting significant EAG responses from female antennae: C. maculata female antennae; for dose eliciting significant EAG responses from female antennae / EAG response threshold of female antennae / dose at which EAG of male antennae reached saturation: dose-response; for dose at which EAG saturation occurred / minimum dose for a significant EAG response: both male and female antennae; for EAG response threshold of female antennae: C. maculata female antennae versus male
Method: Adults of both sexes were anesthetized by placing them at −20° C., then the abdomen and elytra of adults were cut off with a pair of fine scissors. Dissecting tools were rinsed with acetone several times between dissections to avoid cross-contamination. The dissected parts were extracted in a 1-ml vial containing 500 μl of hexane for two hours. Ten males and females were dissected and extracted. The extracts were concentrated to 200 μl under a mild stream of N2. Approximately 20 μl of the extracts, equivalent to one adult, was used for the EAG tests.
(§1) Both sexes of C. maculata were handled vigorously, and pressed against a piece of filter paper (Whatman, No. 1), resulting in reflex bleeding production of orange colored fluid excreted through the joints of the legs, that was absorbed into the filter paper. Fluids from 20 beetles were collected. The filter paper used for the collection was then cut into small pieces and placed in a 2-ml vial and extracted with 200 μl of hexane for one hour. A volume of 10 μl of the concentrated extract was used for EAG tests.
(§2) Corn (Pioneer, Hybrid 3489) was grown in the greenhouse under approx. 25° C. and 75% humidity, with natural light supplemented by 400 Watt high pressure sodium lights. The three-leaf stage of plants was used for volatile collections, because this life stage is infested by corn leaf aphids (Bing, J. W., et al., 1992, J. Econ. Entomol.21:223-234) and it is also a stage searched by these predatory species. Corn leaves were removed from plants, and ca. 15 g placed in a 0.5-1 glass collector with two openings on each side. A stream of purified air passing through a freshly activated charcoal filter was blown into the inlet of the collector, through the corn leaves, then exited through the outlet connected to a Tenax trap. The trap consisted of a Pasteur pipette (5 cm long and 0.5 cm diameter) packed with 300 mg of Tenax (20-35 mesh, Alltech, Ill.). The flow rate of the air was 150 ml/min from the outlet of the Tenax trap, and the volatiles were collected for 18 hours. The trapped volatiles were eluted with HPLC-grade hexane. The extracts from three collections were combined and concentrated to 100 μl. Ten microliters of extracts were used for each EAG test.
(§3) Dried seeds and flowers of catnip, Nepeta cataria, were purchased from a local pet store. For EAG tests, approx. 0.2 mg of dried plant material was homogenized, then extracted by adding 500 μl of hexane. The extract was poured through a funnel with filter paper (Whatman No.1), and the residue was discarded. The extract was concentrated to 100 μl, under a mild stream of N2. The extract was then stored at −20° C. until used in EAG tests.
EAG recordings were made by connecting an electrogel-filled (Spectro 360, Parker Laboratory, New Jersey) glass-pipette Ag/AgCl electrode to the head of an excised beetle or lacewing. A recording electrode filled with the same electrogel connected to a high-impedance DC amplifier with automatic baseline drift compensation, was placed in contact with the tip of their antennae (intact). Antennal responses to various chemical stimuli were first recorded for a series of commercial synthetic compounds representing known corn leaf volatiles. Then, male and female body extracts of C. maculata, reflex bleeding extracts, aphid alarm pheromone and catnip extracts were tested. A second series of EAG tests was then conducted including dose-response series using selected EAG-active compounds from the first test. Serial dilutions of the tested compounds were made in redistilled HPLC-grade hexane at dosages ranging from 0.1 μg to 1000 μg, except α-terpineol, for which methylene chloride was used. The tested compounds and extracts were applied to filter-paper strips (0.5×2.5 cm, Whatman No.1) in 10 μl of solvent, except as otherwise noted. The filter-paper strips were inserted into Pasteur pipettes (15 cm long). Control puffs of air were applied after each puff of a test stimulus. […]

Coleomegilla maculata = test: Field trapping test in an alfalfa field, C. maculata catches; type: in vivo; details: traps baited with 50 mg
Method: (§4) A field trapping test was conducted in an alfalfa field in Ames, Iowa. Synthetic compounds at a dose of 50 mg were prepared in hexane or methylene chloride. Medical peerless cotton rolls (5 cm long, 100% cotton) were used as dispensers, and the traps used were similar to the Rebell Trap (Great Lakes IPM, Mich.). The trap was hung from the bent end of an electric farm post, 1.2 m above the ground. Within a replicate (N=3), traps were set at least 10 m apart. The traps were checked daily, and trap position within a series was randomized to minimize the effects of habitat heterogenity.

[2] = test system: antennae of Chrysoperla carnea; test: Electroantennogram (EAG) responses of Chrysoperla carnea antennae; details: for EAG response: C. carnea antennae
Method: as §1, §2, §3
EAG recordings were made by connecting an electrogel-filled (Spectro 360, Parker Laboratory, New Jersey) glass-pipette Ag/AgCl electrode to the head of an excised beetle or lacewing. A recording electrode filled with the same electrogel connected to a high-impedance DC amplifier with automatic baseline drift compensation, was placed in contact with the tip of their antennae (intact). Antennal responses to various chemical stimuli were first recorded for a series of commercial synthetic compounds representing known corn leaf volatiles. Then, male and female body extracts of C. maculata, reflex bleeding extracts, aphid alarm pheromone and catnip extracts were tested. A second series of EAG tests was then conducted including dose-response series using selected EAG-active compounds from the first test. Serial dilutions of the tested compounds were made in redistilled HPLC-grade hexane at dosages ranging from 0.1 μg to 1000 μg, except α-terpineol, for which methylene chloride was used. The tested compounds and extracts were applied to filter-paper strips (0.5×2.5 cm, Whatman No.1) in 10 μl of solvent, except as otherwise noted. The filter-paper strips were inserted into Pasteur pipettes (15 cm long). Control puffs of air were applied after each puff of a test stimulus. The response to the air puff was used to normalize beetle or lacewing responses relative to the tested stimuli. The average EAG response to the air puff from antennae of C. maculata and C. carnea was 0.05±0.003 mV (n=30) and 0.02±0.001 mV (n=27), respectively. The relative EAG response of each stimulus was normalized by dividing the amplitude of the test stimulus by the mean of the response to the control puff. The sequence of exposure of each stimulus to each antenna was randomly defined.

Chrysoperla carnea = test: Field trapping test in an alfalfa field, C. carnea catches; type: in vivo; details: traps baited with 50 mg
Method: as §4

C. cognata = details: Boo et al. 1998; cited from earlier work
Harmonia axyridis = details: behavioral test; cited from earlier work
Hippodamia convergens = details: behavioral test; cited from earlier work
[3] = test system: Coccinella septempunctata; details: Nakamuta 1991; cited from earlier work
C. carnea = details: earlier study, Flint et al. 1979; cited from earlier work

Row | Structure (SMILES) | EAG response [1] | trap catches / attraction of C. maculata in field test (Coleomegilla maculata) | EAG response ([2]; both sexes) | EAG response threshold of female antennae [1] | other results
1 | C=CC(O)CCCCC (stereo not shown) [1-octen-3-ol, 1-Octen-3-ol] | EAG responses | – | – | – | difference in EAG response between male and female antennae ([1]; C. maculata, male relative to female): significantly higher EAG response; also recorded: Sexual differences
2 | OCCc1ccccc1 [2-phenylethanol, 2-Phenylethanol] | significantly higher; also recorded: highest EAG responses | significantly attracted; also recorded: highly attractive | significant response; also recorded: highly sensitive; also recorded: most strongly | – | dosage eliciting significant EAG responses ([2]; C. carnea, antennae of both sexes): 10 µg; dose eliciting significant EAG responses from female antennae [1]: 10 µg; trap catches / attraction of C. carnea in field test (Chrysoperla carnea): significantly attracted; also recorded: highly attractive
3 | CC1=CO[C@@H](O)[C@H]2[C@@H]1CC[C@@H]2C [(1R,4aS,7S,7aR)-nepetalactol, reference compound] | responded; also recorded: significant EAG responses | – | responded; also recorded: significant EAG responses | – | dose at which EAG saturation occurred ([1]; C. maculata): 100 µg; minimum dose for a significant EAG response ([1]; C. maculata): 100 µg
4 | CC1=COC(=O)[C@H]2[C@@H]1CC[C@@H]2C [(4aS,7S,7aR)-nepetalactone, reference compound] | responded; also recorded: relatively higher EAG response; also recorded: significant EAG responses | – | responded; also recorded: significant EAG responses | higher thresholds | attraction of adult C. cognata in the field (C. cognata): attracted; EAG response of female antennae ([2]; C. carnea female antennae): greater; dose at which EAG saturation occurred ([1]; C. maculata): 100 µg; minimum dose for a significant EAG response ([1]; C. maculata): 100 µg
5 | C=CC(=C)CC/C=C(\C)CCC=C(C)C [(E)-β-farnesene, (E)-β-Farnesene] | significantly higher; also recorded: highest EAG responses | no differences in catches | significant response; also recorded: increased with increasing doses; also recorded: highly sensitive; also recorded: most strongly | – | attraction of Harmonia axyridis (Harmonia axyridis): attracted; attraction of Hippodamia convergens (Hippodamia convergens): attracted; dose of highest EAG response ([2]; C. carnea, both sexes, dose-response): 1000 µg; EAG response of male antennae ([1]; C. maculata male antennae): as high as those in response to aphid sex pheromone; dose at which EAG of male antennae reached saturation ([1]; C. maculata male antennae): 100 µg; searching behaviors of Coccinella septempunctata [3]: does not elicit searching behaviors
6 | CC/C=C\CCO [(Z)-3-hexenol, (Z)-Hexenol] | EAG responses | – | relatively lower EAG responses | higher thresholds | –
7 | CCCCCCO [hexanol, 1-Hexanol] | EAG responses | – | – | – | –
8 | CC1=CCC(C(C)(C)O)CC1 (stereo not drawn) [α-terpineol, α-Terpineol] | significantly higher; also recorded: highest EAG responses | Significant catches | relatively lower EAG responses | higher thresholds | trap catches / attraction of C. maculata in field test (Coleomegilla maculata; listed as a-terpineol): attracted; dose eliciting significant EAG responses from female antennae [1]: 10 µg; dose at which EAG of male antennae reached saturation ([1]; C. maculata male antennae): 100 µg
9 | C=C1CC/C=C(\C)CC[C@@H]2[C@@H]1CC2(C)C [β-caryophyllene, β-Caryophyllene] | highest EAG responses | – | relatively low EAG response | – | attraction of adults of C. carnea in the field (C. carnea): acts as an attractant; trap catches / attraction of C. carnea in field test (Chrysoperla carnea): low catches

— US6562332B2, “Attractants of beneficial insects” (Iowa State University Research Foundation, Inc., priority 1999, dated 2003)
